Values joined by “and” are separate entries in the source; they are usually repeats but may differ in a detail not shown here. Equal entries are not always repeated.

In test [1] the test system is Rabbit Aortic Ring. Kind of test: Relaxation of phenylepherine-contracted rabbit aortic ring by acetylcholine in the presence of AHPP. More on the design: species or system New Zealand White rabbit. Conditions: for Amount of acethylcholine required to inhibit 50% relaxation of aorta ring: 0.11 without AHPP. The method, then:
Synergistic Vascular Relaxation Effect to Acetylcholine of Rabbit Aortic Ring by AHPP Aortic ring with a diameter of 5 mm was prepared from chest aorta of New Zealand White female rabbits with a body weight of 2.5-3.0 kg. The rings were surgically prepared and hanged into the organ bath containing 20 ml of Krebs solution, which was kept at 37° C. and supplemented with 95% O2 and 5% CO2, for determination of the tension. Aortic ring relaxation by […] acetylcholine was measured in the prescence of 0, 100, and 300 μmole/L of AHPP, after aortic ring contraction was induced by 0.15 μmole/L phenylepherine.

Test [2] deals with T1, cow milk xanthine oxidase (Bos taurus, UniProt P80457).
T1 construct: in the presence of cow milk xanthine oxidase; from tissue; host or cells: cow milk
T1 sequence (P80457 whole entry): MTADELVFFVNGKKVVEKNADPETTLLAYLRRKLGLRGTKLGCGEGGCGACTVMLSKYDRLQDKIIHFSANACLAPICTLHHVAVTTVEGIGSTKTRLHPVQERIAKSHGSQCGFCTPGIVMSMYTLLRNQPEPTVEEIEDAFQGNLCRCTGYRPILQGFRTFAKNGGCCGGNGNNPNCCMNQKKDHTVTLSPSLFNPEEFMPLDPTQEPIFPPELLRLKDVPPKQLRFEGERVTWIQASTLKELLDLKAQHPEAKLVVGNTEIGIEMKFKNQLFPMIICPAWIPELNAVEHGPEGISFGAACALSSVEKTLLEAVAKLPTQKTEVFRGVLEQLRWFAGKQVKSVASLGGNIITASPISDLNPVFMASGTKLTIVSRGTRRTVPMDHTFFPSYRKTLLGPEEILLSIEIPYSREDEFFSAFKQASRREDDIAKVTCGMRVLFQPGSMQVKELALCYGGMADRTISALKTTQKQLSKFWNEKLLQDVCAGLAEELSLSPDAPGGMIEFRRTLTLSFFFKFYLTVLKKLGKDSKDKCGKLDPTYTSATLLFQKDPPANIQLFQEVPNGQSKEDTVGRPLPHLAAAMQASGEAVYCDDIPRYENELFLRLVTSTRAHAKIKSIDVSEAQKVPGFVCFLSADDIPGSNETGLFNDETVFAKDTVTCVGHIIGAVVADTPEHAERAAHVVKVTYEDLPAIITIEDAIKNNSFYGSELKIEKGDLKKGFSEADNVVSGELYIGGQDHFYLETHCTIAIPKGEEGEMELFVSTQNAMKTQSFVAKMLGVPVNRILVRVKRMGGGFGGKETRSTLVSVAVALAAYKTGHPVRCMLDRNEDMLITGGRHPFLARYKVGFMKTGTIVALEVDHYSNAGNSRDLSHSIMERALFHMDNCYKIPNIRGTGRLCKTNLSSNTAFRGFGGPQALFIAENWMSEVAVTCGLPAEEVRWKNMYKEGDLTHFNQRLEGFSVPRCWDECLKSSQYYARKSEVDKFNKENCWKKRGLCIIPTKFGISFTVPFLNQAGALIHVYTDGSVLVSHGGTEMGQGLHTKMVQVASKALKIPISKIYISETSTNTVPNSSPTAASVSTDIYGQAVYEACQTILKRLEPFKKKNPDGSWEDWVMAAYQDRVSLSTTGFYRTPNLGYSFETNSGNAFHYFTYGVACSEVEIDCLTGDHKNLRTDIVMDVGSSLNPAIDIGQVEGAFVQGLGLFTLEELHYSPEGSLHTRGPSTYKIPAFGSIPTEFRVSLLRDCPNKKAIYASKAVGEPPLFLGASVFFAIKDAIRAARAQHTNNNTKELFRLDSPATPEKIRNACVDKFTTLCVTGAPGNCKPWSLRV
Kind of test: Inhibition of uric acid production by xanthine oxidase in vitro. The format is biochemical. How it is done: Inhibitory Effect of AHPP Against Uric Acid Production by Xanthine Oxidase In Vitro
Rate of uric acid production was determined by measuring the increase of an optical absorbance at 290 nm in 50 mM phosphate buffer solution (pH 7.5) containing 2.19-21.9 μmole/L of xanthine and 0-0.44 μmole/L AHPP in the presence of cow milk xanthine oxidase in the final concentration of 3.33 mU/ml. […] The inhibitory coefficient (Ki) of AHPP for xanthine oxidase was determined to be 0.2 μM, by an analysis of its reaction velocity kinetics.

Test [3] concerns xanthine dehydrogenase. Particulars: Yokohama Med. Bull., 29, 53-58, 1978; cited from earlier work.
In test [4] the test system is xanthine oxidase. Particulars: J. Biol. Chem., 226, 993-1000, 1957; cited from earlier work.
Test [5] relates to Spontaneously Hypertensive Rats. Kind of test: Mean arterial blood pressure of spontaneously hypertensive rats after intravenous injection. It counts as in vivo, rat. Particulars: 50 mg/kg, average of 8 rats. How it is done: Effect of Intravenous Injection of AHPP on the Blood Pressure of Spontaneously Hypertensive Rats
Eighteen weeks old spontaneously hypertensive 8 male rats weighing 300-400 g were intravenously infused with 50 mg/kg of AHPP in a solution dissolved in 1 ml of 0.1 M NaOH for 5 minutes (8 rats), and mean arterial blood pressure was measured under anesthesia. Eight control rats were received only 0.1 M NaOH by intravenous infusion.
Dose of AHPP. 50 mg/kg in rats. 0.33 mmol/ml, 1.0 ml/5 min. See text for details. Average value of 8 measurements ±SD.

Test [6] has the same test system. The test can be described thus: Systolic blood pressure of spontaneously hypertensive rats after oral administration. It counts as in vivo, rat. Conditions: 100 mg/kg oral, 4 hours after treatment, male spontaneously hypertensive rats. The method, then: Effects of Oral Administration of AHpp on the Blood Pressure of Spontaneously Hypertensive Rats
Four male spontaneously hypertensive rats with a body weight of […] and 4 male rats with a body weight of 200-300 g were orally given with 100 mg/kg of AHPP and a systolic blood pressure in tail artery was examined 4 hours after the treatment. Systolic blood pressure of the treated group was reduced to 70% the value of before

The subject of test [7] is tryptophan pyrolase. Particulars: Life Sci., 8, 843-851, 1969; cited from earlier work.
The target of test [8] is xanthine oxidase derived from cow milk (Bos taurus, UniProt P80457). The test can be described thus: Inhibition of superoxide production by xanthine oxidase in vitro (lucigenin chemiluminescence). It counts as biochemical. Conditions: for Integral value of intensity of chemiluminescence/10 min: average of two measurements, without AHPP 5.2 × 10^6 count. The method, then: Inhibitory Effect of AHPP against Superoxide Production by Xanthine Oxidase In Vitro
Chain of xanthine oxidase derived from cow milk (P80457 whole entry): as above
Production of superoxide radicals was determined by measuring a chemiluminescence observed in 100 mM phosphate buffer (pH 7.4) containing 10 μmole/L lucigenin and […] xanthine in the presence of 20 U/ml of xanthine oxidase derived from cow milk. Further, the inhibition of superoxide generation by the AHPP was evaluated by addition of 0-100 μmole/L of AHPP into the reaction mixture.

With `CC(=O)OCC[N+](C)(C)C` [acetylcholine, reference compound], in test [1] (Oryctolagus cuniculus, 0 μmole/L AHPP, contraction by 0.15 μmole/L phenylepherine, average of four measurements, read-out: Amount of acethylcholine required to inhibit 50% relaxation of aorta ring), the EC50 was determined as 110 nM.
With `Nc1nc(O)nc2[nH]ncc12` [AHPP, 4-amino-6-hydroxypyrazolo [3,4-d]pyrimidine], the “inhibition of uric acid production by xanthine oxidase” value in test [2] (0-0.44 μmole/L AHPP, pH 7.5) is reported as “inhibited by AHPP in a dose-dependent manner”. Also, the inhibition constant Ki in test [2] (pH 7.5, 2.19-21.9 μmole/L xanthine, 0-0.44 μmole/L AHPP, 3.33 mU/ml enzyme, read-out: inhibitory coefficient (Ki) for xanthine oxidase) is 200 nM. The “type of inhibition of xanthine oxidase” value in test [2] (reaction velocity kinetics) was “competitive inhibition”. Besides, in test [3], the “inhibition of xanthine dehydrogenase” value is given as “potent inhibitor”. For the same molecule, the “inhibition of xanthine oxidase” value in test [4] is listed as “potent inhibitor”. In addition, in test [1] (0, 100, and 300 μmole/L AHPP), the “dose of phenylepherine required for 50% relaxation of phenylepherine-induced aortic ring contraction” value is reported as “reduced depending on the concentration of AHPP”. The “Amount of acethylcholine required to inhibit 50% relaxation of aorta ring” value worked out at 0.075 in test [1] (100 μmole/L AHPP, contraction by 0.15 μmole/L phenylepherine, average of four measurements) and 0.055 in test [1] (300 μmole/L AHPP, contraction by 0.15 μmole/L phenylepherine, average of four measurements). Moreover, the “Mean arterial blood pressure (100% = preinjection value)” value in test [5] (5 min after iv, control 105.5 ± 7.5) stood at 98.3 ± 2.7%; in test [5] (10 min after iv, control 107.3 ± 6.9), 92.2 ± 6.1%; in test [5] (15 min after iv, control 106.1 ± 6.3), 91.1 ± 5.6%; in test [5] (20 min after iv, control 105.0 ± 6.6), 86.9 ± 8.0%; in test [5] (30 min after iv, control 103.3 ± 4.2), 81.7 ± 5.0%; in test [5] (40 min after iv, control 100.5 ± 3.1), 77.7 ± 5.2%. The “Mean arterial blood pressure (100% = preinjection value)” value in test [5] (50 min after iv, control 98.9 ± 3.3) is 76.1 ± 7.2%; in test [5] (60 min after iv, control 97.5 ± 4.1), 73.5 ± 7.5%; in test [5] (70 min after iv, control 96.7 ± 5.0), 72.4 ± 6.6% and 72%. In addition, in test [6], the “Systolic blood pressure in tail artery, % of value before” value is 70%. Besides, in test [7], the “inhibition of tryptophan pyrolase” value was “potent inhibitor”. Further, the “inhibition of superoxide production by xanthine oxidase” value in test [8] (0-100 μmole/L AHPP, pH 7.4) is on record as “inhibit superoxide production by xanthine oxidase in a dose-dependent manner”. In addition, the “Integral value of intensity of chemiluminescence/10 min” value in test [8] (1 μmole/L AHPP) is listed as 4.4 × 10^6 count; in test [8] (10 μmole/L AHPP), 1.6 × 10^6 count.

By Ki is commonly meant the dissociation constant of the complex between target and ligand, obtained from inhibition or displacement.

These data come from patent publication US5747495A, “Method for treating hypertension using pyrazolopyrimidine derivatives” (Maeda; Hiroshi, priority 1995, dated 1998).
